Five compounds from US7482345B2, “P38 kinase inhibiting agents” (priority 2005, dated 2009) can be followed below.

T1 sequence (P47811 whole entry): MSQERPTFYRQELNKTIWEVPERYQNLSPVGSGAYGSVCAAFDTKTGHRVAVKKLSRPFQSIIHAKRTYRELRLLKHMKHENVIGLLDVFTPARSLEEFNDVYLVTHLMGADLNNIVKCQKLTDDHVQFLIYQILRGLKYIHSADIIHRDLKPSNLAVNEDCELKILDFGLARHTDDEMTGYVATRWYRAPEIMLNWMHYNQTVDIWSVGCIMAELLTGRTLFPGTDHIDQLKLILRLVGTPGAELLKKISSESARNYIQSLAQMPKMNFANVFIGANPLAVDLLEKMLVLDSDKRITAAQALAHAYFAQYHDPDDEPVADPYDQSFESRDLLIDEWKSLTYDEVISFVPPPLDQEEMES

This assay has as its target T1, Murine p38 (Mus musculus, UniProt P47811).
T1 construct: made in house; host or cells: Drosophila S2 cells (p38); E. coli (GST-ATF2)
As to the kind of experiment: p38 kinase assay. Format: biochemical. Conditions: illustrative Examples; table does not say which of 'the above assays'. As for the experimental part:
Murine p38 containing the FLAG epitope tag was expressed in Drosophila S2 cells under transcriptional control of a copper-inducible metallothionein promoter. Expression of recombinant p38 was induced by treating transfected cells with 1 mM CuSO4 for 4 hours. To generate active recombinant murine p38, CuSO4-treated S2 cells were stimulated 10 minutes prior to harvest with 400 mM NaCl, 2 mM Na3VO4, and 100 μg/L okadaic acid. Cell pellets were washed with phosphate-buffered saline, 2 mM Na3VO4, and lysed in 20 mM Tris HCl, pH 7.5, 120 mM NaCl, 1% Triton X-100, 2 mM EDTA, 20 mM NaF, 4 mM Na3VO4, 2 mM Prefabloc SC (Boehringer Mannheim). Cell lysates were centrifuged for 10 min at 13,000×g, and activated, recombinant murine p38 was immunoaffinity purified from the lysate by column chromatography through anti-FLAG M2 resin (Kodak) that had been equilibrated with lysis buffer. After loading the extract the resin was washed with 10 column volumes of lysis buffer, 10 column volumes buffer A (10 mM Tris HCl, pH 7.5, 500 mM NaCl, 20% glycerol) and 10 column volumes of buffer B (10 mM Tris HCl pH 7.5, 150 mM NaCl, 20% glycerol). The fusion protein was eluted in buffer B containing 100 μg/mL FLAG peptide (Kodak).
The N-terminal 115 amino acids of ATF-2 was expressed in E. coli as a fusion protein with glutathione-S-transferase. The fusion protein was purified over glutathione agarose according to standard procedures (Pharmacia).
p38 kinase assays were performed in a reaction volume of 100 μL in a 96-well plate, at 30° for […] under the following conditions: 25 mM Hepes, pH 7.4, 10 mMmgCl2, 20 mM β-glycerolphosphate, 2 mM DTT, 5 μM ATP, 10 μCi [γ-33P]-ATP and ˜2 μM GST-ATF2. Serial dilutions of compounds were added to each reaction in 2 μL DMSO. 2 μL of DMSO was added to the last row of each reaction plate as the no inhibitor control for each inhibitor titration. The reaction was terminated with an equal volume of a stop solution containing 100 mM EDTA and 15 mM sodium pyrophosphate. PVDF filter plates (MAIPNOB50, Millipore) were pre-wet with methanol and washed with the stop solution. 50 μL aliquots from a single reaction were applied to the filter under vacuum, and the filter was washed twice with 75 mM phosphoric acid. The filter plates were counted in a scintillation counter (Top Count, Packard) and the percent inhibition at each compound concentration is determined.
A word on the IC50: it is the concentration that inhibits the measured activity by half. The compound `COc1ccc(C(=O)N2CCCC2)cc1-c1c(=O)ccn2nc(Oc3ccc(F)cc3F)ccc12` [Example 4, 2-(2,4-difluorophenoxy)-5-[2-methoxy-5-(pyrrolidin-1-ylcarbonyl)phenyl]-6H-pyrido[1,2-b]pyridazin-6-one] displayed an IC50 of 0.022 µM. That is a double-digit nanomolar value.

With `CCc1ccc(C(=O)N2CCCC2)cc1-c1c(=O)ccn2nc(Oc3ccc(F)cc3F)ccc12` [Example 14, 2-(2,4-difluorophenoxy)-5-[2-ethyl-5-(pyrrolidin-1-ylcarbonyl)phenyl]-6H-pyrido[1,2-b]pyridazin-6-one], the 50% inhibitory concentration (IC50) stood at 0.059 µM.

`O=c1ccn2nc(NCc3ccc(F)cc3F)ccc2c1-c1c(F)cccc1F` [Example 49] came in with an IC50 of 0.71 µM. `O=c1ccn2cc(Sc3ccc(F)cc3F)ccc2c1-c1c(F)cccc1F` [Example 52, 1-(2,6-difluorophenyl)-7-[(2,4-difluorophenyl)thio]-2H-quinolizin-2-one] returned a half-inhibitory concentration (IC50) of 0.32 µM. In the case of `O=c1ccn2cc(Cc3ccc(F)cc3F)ccc2c1-c1c(F)cccc1F` [Example 53, 7-(2,4-difluorobenzyl)-1-(2,6-difluorophenyl)-2H-quinolizin-2-one], the IC50 was 0.093 µM.
